Reference: the NIST ThermoML archive (doi:10.1021/je030165y)
± gives the expanded uncertainty stated by the source.

Assay: refractive index (Na D-line) (dimensionless)
Conditions: 298.15 K; 101.33 kPa; Liquid; Standard Abbe refractometry

| refractive index | SMILES |
| --- | --- |
| 1.3783 ± 0.0008 | COCCOC [1,2-dimethoxyethane] |
| 1.4236 ± 0.0008 | C1CCCCC1 [cyclohexane] |
| 1.3722 ± 0.0007 | CCCCCC [hexane] |

| SMILES | refractive index |
| --- | --- |
| Cc1ccccc1 [toluene] | 1.4941 ± 0.0008 |
